Laboratory results published in patent US7098231B2, “Viral polymerase inhibitors” (Boehringer Ingelheim International GmbH, priority 2003, dated 2006).

What follows are compounds tested against T1, hepatitis C virus RNA dependent polymerase (NS5B) (Hepatitis C virus genotype 1b, UniProt P26663) (assay: biochemical).
T1 construct: The C-terminal polyprotein cleavage product, NS5B, is the elongation subunit of the HCV replicase
T1 sequence (P26663 2420-3010): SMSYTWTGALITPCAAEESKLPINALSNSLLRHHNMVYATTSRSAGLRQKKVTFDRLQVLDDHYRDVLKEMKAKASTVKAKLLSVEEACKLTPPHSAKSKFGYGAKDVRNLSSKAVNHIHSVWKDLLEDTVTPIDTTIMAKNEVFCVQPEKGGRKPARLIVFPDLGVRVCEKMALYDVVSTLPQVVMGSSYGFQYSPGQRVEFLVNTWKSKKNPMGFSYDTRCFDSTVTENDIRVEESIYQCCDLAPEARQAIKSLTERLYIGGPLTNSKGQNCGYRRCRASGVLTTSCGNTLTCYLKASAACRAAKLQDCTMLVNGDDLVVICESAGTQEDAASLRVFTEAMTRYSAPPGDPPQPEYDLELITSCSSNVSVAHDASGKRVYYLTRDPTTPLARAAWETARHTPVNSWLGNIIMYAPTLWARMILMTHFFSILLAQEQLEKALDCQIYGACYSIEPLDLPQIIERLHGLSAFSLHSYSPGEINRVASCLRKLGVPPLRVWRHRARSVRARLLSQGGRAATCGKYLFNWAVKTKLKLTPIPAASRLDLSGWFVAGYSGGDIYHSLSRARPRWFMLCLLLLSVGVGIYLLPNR
Experimental: Inhibition of NS5B RNA Dependent RNA Polymerase Activity
The compounds of the invention were tested for inhibitory activity against the hepatitis C virus RNA dependent polymerase (NS5B), according to the protocol described in WO 03/010141.
COc1c(C(=O)NS(C)(=O)=O)ccc2c(C3CCCC3)c(-c3ccoc3)n(C)c12 [compound 201] was tested, and the IC50 was < 1000 nM.
Work on Cn1c(-c2ccoc2)c(C2CCCCC2)c2cc(C(=O)NS(C)(=O)=O)ccc21 [compound 203] yielded an IC50 of 1000 to 20000 nM.
In the case of COc1c(C(=O)NS(=O)(=O)c2ccccc2)ccc2c(C3CCCC3)c(-c3ccoc3)n(C)c12 [compound 202], the IC50 is reported as < 1000 nM.
With Cn1c(-c2ccoc2)c(C2CCCCC2)c2cc(C(=O)NS(=O)(=O)c3ccccc3)ccc21 [compound 204] the IC50 was 1000 to 20000 nM.
